This series in a line: Rat PK profile (bioavailability, clearance, half-life). Type of series: in vivo. Conditions: male, Sprague Dawley, plasma, i.v. dose 1 mg/kg. As to the method:
Male Sprague Dawley Rats 300-350 g (Charles River, UK) were group housed, n=3, under a 12 h light/dark cycle with food and water available ad libitum. At 17:00 on the day prior to dosing all food was removed. On the day of dosing animals were weighed, tail marked and dosed via oral gavage with compound at 3 mg/kg in a volume of 5 mL/kg. Animals were culled at 30 min, 1 h and 4 h post dose via intra-peritoneal administration of pentobarbital. Post mortem blood was withdrawn via cardiac puncture, and briefly stored in K2 EDTA blood tubes on ice before being spun at 14,000 g for 4 min at 4° C. Plasma was withdrawn into a 96 well plate, placed on dry ice and stored at −80° C. Brains were quickly dissected and placed on dry ice before storage at −80° C. Bioanalysis of plasma and brain samples is performed as detailed below. Methods were prepared with guidance from industry standard documents.^i,ii
A 10 mM DMSO stock is used to prepare spiking solutions of test compound in the range of 10-100,000 ng/mL in diluent (MeCN:water, 1;1). Calibration lines are prepared in control male Sprague-Dawley Rat plasma at known concentrations in the range of 1-10000 ng/mL by spiking 2.5 μL of calibration spiking solution into 25 μL control plasma. Experimental samples are thawed to RT and 25 μL aliquots are extracted alongside the calibration lines using protein precipitation (agitation for at least 5 min at RT with 400 μL of MeCN containing 25 ng/mL tolbutamide as an internal standard). Protein precipitates are separated from the extracted test compound by centrifugation at 4000 rpm for 5 min, 4° C. The resulting supernatants are diluted in a ratio of 1:2 with a relevant diluent (e.g. 0.1% formic acid in water or 1:1 MeOH:water). Samples are analysed by UPLC-MS/MS on either an API6500 QTrap or Waters 30 TQS mass spectrometer using previously optimised analytical MRM (multiple reaction monitoring) methods, specific to the test compound. The concentration of test compound in isolated samples is determined following analysis of the samples against the two replicates of the calibration line, injected before and after the sample set with an appropriate regression and weighting used. Only samples within 20% of the expected test concentration are included in the calibration line and any samples that fall outside of the limits of the calibration line will be deemed to be less than or above the limit of quantification (LLoQ/ALoQ).
Pharmacokinetic parameters such as bioavailability (% F), clearance (CL), half-life (T½) and volume of distribution are calculated by non-compartmental analysis using Phoenix Winnonlin 64 software (build 8.0). The bioavailability was calculated from p.o. dosed rats, whereas the clearance and half-life were calculated from i.v. dosed rats. Briefly, in vivo plasma concentrations, timepoints and dose values are imported into the software in a compatible format. Plasma concentration for each animal is plotted against time, and the elimination phase identified and selected. The area under the curve for each plot is calculated using a linear trapezoidal linear interpolation from which pharmacokinetic parameters can subsequently be determined. […] Compounds of the invention have much improved clearance (CL) and half-life (T½) compared to the reference examples.

The term clearance denotes a measure of how efficiently the substance is removed, as volume per time. One may read the bioavailability as dose-corrected exposure relative to a reference, in per cent. A higher bioavailability goes with much systemic uptake. `O=C(Nc1ccc(OC(F)(F)Cl)cc1)c1ccc(=O)n(-c2ccccc2)c1` [Example 56, N-[4-[Chloro(difluoro)methoxy]phenyl]-6-oxo-1-phenyl-pyridine-3-carboxamide] yielded a clearance (iv) of 1.9 mL/min/kg. Also, the half-life (iv, read-out: T½ (converted)) was 20 h. For the same molecule, the bioavailability (po, p.o. dose 3 mg/kg) is 97%.

For the origin of these results see patent publication US20230002346A1, “NEW COMPOUNDS AND METHODS” (BenevolentAl Bio Limited, priority 2019, published 2023).
